# From US20230374503A1, “COMBINATION” (AstraZeneca AB, priority 2014, published 2023)
# In the oligonucleotide strings, read from the 5' end, every base follows the letter of its sugar. An asterisk marks phosphorothioate; unmarked linkages are phosphodiester. Other units and linkages are bracketed, terminal groups are in braces. A string of capitals states the bases alone. k = constrained ethyl (cEt); [5mC] = 5-methylcytosine; d = 2'-deoxy (DNA)
# B1: MEDI4736: human monoclonal antibody directed against human PD-L1 (antibody, V domains shown)
# VH: EVQLVESGGGLVQPGGSLRLSCAASGFTFSRYWMSWVRQAPGKGLEWVANIKQDGSEKYYVDSVKGRFTISRDNAKNSLYLQMNSLRAEDTAVYYCAREGGWFGELAFDYWGQGTLVTVSS
# VL: EIVLTQSPGTLSLSPGERATLSCRASQRVSSSYLAWYQQKPGQAPRLLIYDASSRATGIPDRFSGSGSGTDFTLTISRLEPEDFAVYYCQQYGSLPWTFGQGTKVEIK
# modifications: MEDI4736 VH; Sequence 72 from PCT/US2010/058007; MEDI4736 VL; Sequence 77 from PCT/US2010/058007
# notes: human monoclonal antibody directed against human PD-L1
# B2: OX40 ligand FP: Mouse OX40 ligand fusion protein generated in house, SEQ ID NO: 37 and 38 (protein)
# chain: VPRDCGCKPCICTVPEVSSVFIFPPKPKDVLTITLTPKVTCVVVDISKDDPEVQFSWFVDDVEVHTAQTQPREEQFNSTFRSVSELPIMHQDWLNGKEFKCRVNSAAFPAPIEKTISKTKGRPKAPQVYTIPPPKEQMAKDKVSLTCMITDFFPEDITVEWQWNGQPAENYKNTQPIMDTDGSYFVYSKLNVQKSNWEAGNTFTCSVLHEGLHNHHTEKSLSHSPGKRLDQDKIEALSNKVQQLERSIGLKDLAMADLEQKVSELEVSTSSPAKDPPIQRLRGAVTRCEDGQLFISSYKNEYQTMEVQNNSVVIKCDGLYIIYLKGSFFQEVKIDLHFREDHNPISIPMLNDGRRIVFTVVASLAFKDKVYLTVNAPDTLCEHLQINDGELIVVQLTPGYCAPEGSYHSTVNQVPL
# modifications: misc_feature 1..1248 DNA Sequence of mouse construct mIgG1mTF2mOX40L
# Experiments:
# [1] = system: DLBCL and HCC; assay: AZD9150 Phase I clinical trials; type: in vivo, human
# [2] = system: CT-26 tumors; assay: CT-26 tumor volume with control ASO and isotype control antibody (Example 4); type: in vivo, mouse; conditions: FIG. 4
# Procedure: (§1) The antitumor efficacy of mouse STAT3 ASO in combination with antibodies targeting PD-L1 or CTLA-4, or with an OX40 ligand fusion protein, were evaluated in three mouse syngeneic tumor models: CT-26 (colorectal), 4T1 (mammary) and A20 (lymphoma). Details of tumor implantation and treatment schedules for each model are in the table below. The QD×5/wk dosing schedule for the STAT3 ASO (same ASO as used in Example 1) was 5 days of treatment followed by 2 days without treatment. The 2×/wk dosing schedule for antibodies was 2 treatments/wk evenly spaced over the course of the week (e.g., Monday and Thursday, or Tuesday and Friday, etc.). ASO treatments began before randomization into treatment groups. […] There were ten mice in each treatment group.
# (§2) The mouse STAT3 ASO was formulated in PBS and dosed subcutaneously. The Abs and FP were also formulated in PBS, and dosed introperitoneally. During the course of the experiment, tumor length and width were measured by caliper, and tumor volume calculated using the formula volume=(length×width^2)*π/6.
# The CT-26 experiment in Example 3 included treatment with a control ASO (AZD9150) and an isotype control antibody (rat IgG2b, product LTF-2, purchased from BioXCell, West Lebanon NH) as negative controls.
# [3] = system: immune-related genes; assay: Nanostring gene expression profiling of patient tumor biopsies, Phase I trial (Example 8); type: in vivo, human; conditions: DLBCL patients; 2 or 3 mg/kg; 4-6 weeks on treatment vs baseline; five of six signature genes
# Procedure: Tumor biopsies were collected in a Phase I clinical trial from cancer patients treated with AZD9150 before treatment started and at 4-6 weeks after treatment commenced. Patients received three loading doses 2 or 3 mg/kg AZD9150 during the first week on days 1, 3, and 5, followed by weekly doses thereafter. Nine of the sets of biopsies were from patients with Diffuse Large B Cell Lymphoma, two were from patients with follicular lymphoma, and one was from a patient with non-small cell lung cancer. The biopsies were formalin fixed and paraffin embedded and sectioned. RNA was isolated from six five-micron sections of each biopsy and subjected to Nanostring gene expression profiling analysis using the nCounter Human Immunology Codeset representing 594 immune-related genes. Raw data were calibrated according to Veldman-Jones et al., (Cancer Research. 75:2587, 2015) and analyzed for changes on-treatment compared to the baseline pretreatment samples. A heatmap representing unsupervised clustering of the largest and most statistically relevant gene expression changes in DLBCL was generated.
# [4] = system: mouse STAT3 sequences; assay: Cross reaction of human STAT3 ASO with mouse STAT3 sequences; conditions: human STAT3 targeted ASO
# [5] = system: advanced melanoma; conditions: phase III; cited from earlier work
# [6] = system: xenograft model; conditions: via a T-cell dependent mechanism; cited from earlier work
# [7] = system: CT-26 (colorectal), 4T1 (mammary) and A20 (lymphoma); assay: Three mouse syngeneic tumor models, tumor volume (Example 3); type: in vivo; conditions: at the doses and schedules of Example 3; FIG. 3
# Procedure: as §1, §2
molecule,measurement,setting,value
"AZD9150: human STAT3 antisense 3-10-3 cEt gapmer, phosphorothioate, 5-methylcytosines, CTATTTGGATGTCAGC (SEQ ID NO: 2) (antisense k[5mC]*kT*kA*dT*dT*dT*dG*dG*dA*dT*dG*dT*d[5mC]*kA*kG*k[5mC])",clinical response,[1],clinical responses in DLBCL and HCC at tolerated doses
same,enhancement of the activity of the anti-PD-L1 antibody,"[2]; AZD9150 plus PD-L1 Ab, CT-26 tumors",no enhancement of the activity of the anti-PD-L1 antibody
same,antitumor activity of negative controls,[2]; mice bearing CT-26 tumors,No Antitumor Activity
same,"upregulated ""interferon gamma gene signature"" genes in tumor biopsies",[3],"STAT1, IFN-gamma, CXCL9, CXCL10, and IDO"
same,cross reaction with mouse STAT3 sequences,[4],does not cross react with mouse STAT3 sequences
tremelimumab: human IgG2 monoclonal antibody highly selective for CTLA-4,overall survival compared to standard of care (temozolomide or dacarbazine),[5],did not significantly increase the overall survival
B1,tumor growth in a xenograft model,[6],inhibits tumor growth
B2,single agent antitumor activity,[7],weak to modest single agent antitumor activity
